Experimental data from patent publication US11746100B2 (GLOBAL BLOOD THERAPEUTICS, INC., priority 2020, dated 2023).

biological target: T1, human ferroportin (Homo sapiens, UniProt Q9NP59); assay: Biological in-vitro ferroportin internalization assay (luciferase reporter); format: cell-based; settings: average pEC50; stably-transfected CHO cell line expressing human ferroportin tagged to a luciferase reporter; 6 h incubation with test compound
T1 construct: luciferase reporter (read with the Nano-Glo Luciferase Assay System); expressed in transfected cells; host or cells: CHO cells, stably transfected, expression induced with doxycycline
T1 sequence (Q9NP59 1-571): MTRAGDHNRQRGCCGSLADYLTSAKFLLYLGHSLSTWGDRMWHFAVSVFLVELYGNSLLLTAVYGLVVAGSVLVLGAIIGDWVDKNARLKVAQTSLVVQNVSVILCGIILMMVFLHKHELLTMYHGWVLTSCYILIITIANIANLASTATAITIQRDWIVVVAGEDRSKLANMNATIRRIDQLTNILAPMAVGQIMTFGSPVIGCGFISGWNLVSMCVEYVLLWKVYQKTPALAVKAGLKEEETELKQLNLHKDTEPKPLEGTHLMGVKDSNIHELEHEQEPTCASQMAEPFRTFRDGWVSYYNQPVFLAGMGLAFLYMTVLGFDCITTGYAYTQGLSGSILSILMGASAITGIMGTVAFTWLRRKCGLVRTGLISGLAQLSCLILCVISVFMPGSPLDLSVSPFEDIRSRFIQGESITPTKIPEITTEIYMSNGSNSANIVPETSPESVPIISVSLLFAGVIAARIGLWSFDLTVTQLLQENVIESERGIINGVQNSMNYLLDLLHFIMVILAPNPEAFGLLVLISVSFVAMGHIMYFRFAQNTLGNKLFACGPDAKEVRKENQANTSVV
Method in brief: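 Read-out is Nano-Glo luciferase signal after 6 h compound exposure, with average pEC50 derived. Cells are a stable CHO line carrying luciferase-tagged human ferroportin, pre-loaded 24 h with ferric ammonium citrate and doxycycline-induced for 24 h.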

| pEC50 | SMILES |
| --- | --- |
| 7.9 | COc1ccc(NC(=O)CN(C)c2nc(-c3cc(OCC(C)(C)O)ccn3)nc3c2CCC3)cn1 [Compound 210, 2-({2-[4-(2-hydroxy-2-methylpropoxy)pyridin-2-yl]-5H,6H,7H-cyclopenta[d]pyrimidin-4-yl}(methyl)amino)-N-(6-methoxypyridin-3-yl)acetamide] |
| 7.9 | CN(CC(=O)NC(C)(C)C)c1nc(-c2cc(OCC3COC3)ccn2)nc2c1CCC2 [Compound 211, N-tert-butyl-2-[methyl(2-{4-[(oxetan-3-yl)methoxy]pyridin-2-yl}-5H,6H,7H-cyclopenta[d]pyrimidin-4-yl)amino]acetamide] |
| 7.1 | CSCC[C@H](C(=O)NC(C)(C)C)N(C)c1nc(-c2cc(OC(F)F)ccn2)nc2c1CCC2 [Compound 212, (2R)—N-tert-butyl-2-({2-[4-(difluoromethoxy)pyridin-2-yl]-5H,6H,7H-cyclopenta[d]pyrimidin-4-yl}(methyl)amino)-4-(methylsulfanyl)butanamide] |
| 6.4 | CN(CC(=O)Nc1cnn(C)c1)c1nc(-c2cc(OC(F)F)ccn2)nc2c1CCC2 [Compound 213, 2-({2-[4-(difluoromethoxy)pyridin-2-yl]-5H,6H,7H-cyclopenta[d]pyrimidin-4-yl}(methyl)amino)-N-(1-methyl-1H-pyrazol-4-yl)acetamide] |
| 7.8 | COc1ccc(NC(=O)CN(C)c2nc(-c3cc(OCC(C)(C)O)ccn3)nc3c2CCC3)nc1 [Compound 214, 2-({2-[4-(2-hydroxy-2-methylpropoxy)pyridin-2-yl]-5H,6H,7H-cyclopenta[d]pyrimidin-4-yl}(methyl)amino)-N-(5-methoxypyridin-2-yl)acetamide] |
| 7.5 | CN(CC(=O)Nc1cnn(C)c1)c1nc(-c2cc(OCC3CC3)ccn2)nc2c1CCC2 [Compound 215, 2-({2-[4-(cyclopropylmethoxy)pyridin-2-yl]-5H,6H,7H-cyclopenta[d]pyrimidin-4-yl}(methyl)amino)-N-(1-methyl-1H-pyrazol-4-yl)acetamide] |
| 6.6 | CN(CC(=O)Nc1ccc(F)nc1)c1nc(-c2cc(OC(F)F)ccn2)nc2c1CCC2 [Compound 216, 2-({2-[4-(difluoromethoxy)pyridin-2-yl]-5H,6H,7H-cyclopenta[d]pyrimidin-4-yl}(methyl)amino)-N-(6-fluoropyridin-3-yl)acetamide] |
| 6.9 | COc1ccc(NC(=O)CN(C)c2nc(-c3cc(OC(F)F)ccn3)nc3c2CCC3)nc1 [Compound 217, 2-({2-[4-(difluoromethoxy)pyridin-2-yl]-5H,6H,7H-cyclopenta[d]pyrimidin-4-yl}(methyl)amino)-N-(5-methoxypyridin-2-yl)acetamide] |
| 7 | CN(CC(=O)Nc1cnn(C)c1)c1nc(-c2cc3ccccc3cn2)nc2c1CCC2 [Compound 218, 2-{[2-(isoquinolin-3-yl)-5H,6H,7H-cyclopenta[d]pyrimidin-4-yl](methyl)amino}-N-(1-methyl-1H-pyrazol-4-yl)acetamide] |
| 7.1 | COc1ccc(NC(=O)CN(C)c2nc(-c3cc4cn[nH]c4cn3)nc3c2CCC3)cn1 [Compound 219, N-(6-methoxypyridin-3-yl)-2-[methyl(2-{1H-pyrazolo[3,4-c]pyridin-5-yl}-5H,6H,7H-cyclopenta[d]pyrimidin-4-yl)amino]acetamide] |
| 7 | CN(CC(=O)Nc1cnn(C)c1)c1nc(-c2cn(C)cn2)nc2c1CCC2 [Compound 220, N-(1-methyl-1H-pyrazol-4-yl)-2-{methyl[2-(1-methyl-1H-imidazol-4-yl)-5H,6H,7H-cyclopenta[d]pyrimidin-4-yl]amino}acetamide] |
| 7 | CN(CC(=O)Nc1ccc(F)nc1)c1nc(-c2cc3ccccc3cn2)nc2c1CCC2 [Compound 221, N-(6-fluoropyridin-3-yl)-2-{[2-(isoquinolin-3-yl)-5H,6H,7H-cyclopenta[d]pyrimidin-4-yl](methyl)amino}acetamide] |
| 7.2 | Cc1ccc(NC(=O)CN(C)c2nc(-c3cc4ccccc4cn3)nc3c2CCC3)cn1 [Compound 222, 2-{[2-(isoquinolin-3-yl)-5H,6H,7H-cyclopenta[d]pyrimidin-4-yl](methyl)amino}-N-(6-methylpyridin-3-yl)acetamide] |
| 7.8 | CCOc1ccnc(-c2nc3c(c(N(C)CC(=O)Nc4ccc(OC)nc4)n2)CCC3)c1 [Compound 223, 2-{[2-(4-ethoxypyridin-2-yl)-5H,6H,7H-cyclopenta[d]pyrimidin-4-yl](methyl)amino}-N-(6-methoxypyridin-3-yl)acetamide] |
| 7.9 | COc1ccc(NC(=O)CN(C)c2nc(-c3cc(OCC4CC4)ccn3)nc3c2CCC3)cn1 [Compound 224, 2-({2-[4-(cyclopropylmethoxy)pyridin-2-yl]-5H,6H,7H-cyclopenta[d]pyrimidin-4-yl}(methyl)amino)-N-(6-methoxypyridin-3-yl)acetamide] |
| 6.8 | COc1ccc(NC(=O)CN(C)c2nc(-c3cc(OC(F)F)ccn3)nc3c2CCC3)cn1 [Compound 225, 2-({2-[4-(difluoromethoxy)pyridin-2-yl]-5H,6H,7H-cyclopenta[d]pyrimidin-4-yl}(methyl)amino)-N-(6-methoxypyridin-3-yl)acetamide] |
| 7.1 | CN(CC(=O)NC(C)(C)C)c1nc(-c2cc3c(cn2)OCO3)nc2c1CCC2 [Compound 226, N-tert-butyl-2-[(2-{2H-[1,3]dioxolo[4,5-c]pyridin-6-yl}-5H,6H,7H-cyclopenta[d]pyrimidin-4-yl)(methyl)amino]acetamide] |
| 7.2 | COc1ccc(NC(=O)CN(C)c2nc(-c3cc4ccccc4cn3)nc3c2CCC3)cn1 [Compound 227, 2-{[2-(isoquinolin-3-yl)-5H,6H,7H-cyclopenta[d]pyrimidin-4-yl](methyl)amino}-N-(6-methoxypyridin-3-yl)acetamide] |
| 7.1 | CN(CC(=O)Nc1cccnc1)c1nc(-c2cc3ccccc3cn2)nc2c1CCC2 [Compound 228] |
| 6.6 | COc1ccc(NC(=O)CN(C)c2nc(-c3cc(OC(F)(F)F)ccn3)nc3c2CCC3)cn1 [Compound 230, N-(6-methoxypyridin-3-yl)-2-[methyl({2-[4-(trifluoromethoxy)pyridin-2-yl]-5H,6H,7H-cyclopenta[d]pyrimidin-4-yl})amino]acetamide] |
| 6.2 | CN(CC(=O)Nc1cnn(C)c1)c1nc(-c2cc(OC(F)(F)F)ccn2)nc2c1CCC2 [Compound 231, 2-[methyl({2-[4-(trifluoromethoxy)pyridin-2-yl]-5H,6H,7H-cyclopenta[d]pyrimidin-4-yl})amino]-N-(1-methyl-1H-pyrazol-4-yl)acetamide] |
| 7 | CN(CC(=O)Nc1ccn(C)n1)c1nc(-c2cc3cn[nH]c3cn2)nc2c1CCC2 [Compound 232, 2-[methyl(2-{1H-pyrazolo[3,4-c]pyridin-5-yl}-5H,6H,7H-cyclopenta[d]pyrimidin-4-yl)amino]-N-(1-methyl-1H-pyrazol-3-yl)acetamide] |
| 7.4 | COc1ccc(NC(=O)CN(C)c2nc(-c3cc4ccccc4cn3)nc3c2CCC3)nc1 [Compound 233, 2-{[2-(isoquinolin-3-yl)-5H,6H,7H-cyclopenta[d]pyrimidin-4-yl](methyl)amino}-N-(5-methoxypyridin-2-yl)acetamide] |
